Experimental data published in PubChem BioAssay (NCI).
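Method: 48-hour compound exposure of cells in 96-well plates, five concentrations, linear interpolation of endpoints. Definition used: TGI = concentration required for complete inhibition of growth.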

What was measured:
Experiment in all cases: inhibition of tumour cell growth, NCI panel, 48 h
[1] = test system: SW-620 colon
[2] = test system: NCI-H23 lung
[3] = test system: HT29 colon
[4] = test system: RPMI-8226 leukemia
[5] = test system: ACHN renal
[6] = test system: MCF7 breast
[7] = test system: MDA-N
[8] = test system: MDA-MB-231 breast
[9] = test system: HCT-15 colon
[10] = test system: NCI/ADR-RES ovarian
[11] = test system: 786-0 renal
[12] = test system: SF-539 CNS
[13] = test system: KM12 colon
[14] = test system: NCI-H226 lung
[15] = test system: HL-60(TB) leukemia
[16] = test system: OVCAR-4 ovarian
[17] = test system: SK-MEL-28 melanoma
[18] = test system: A549 NSCLC
[19] = test system: SF-295 CNS
[20] = test system: COLO 205 colon
[21] = test system: PC-3 prostate
[22] = test system: DU-145 prostate
[23] = test system: MDA-MB-435
[24] = test system: MALME-3M melanoma
[25] = test system: UACC-62 melanoma
[26] = test system: RXF 393 renal
[27] = test system: MOLT-4 leukemia
[28] = test system: BT-549 breast
[29] = test system: SF-268 CNS
[30] = test system: TK-10 renal
[31] = test system: HS 578T breast
[32] = test system: HCT-116 colon
[33] = test system: SNB-19 CNS
[34] = test system: SK-OV-3 ovarian
[35] = test system: HOP-92 NSCLC
[36] = test system: LOX IMVI melanoma
[37] = test system: SK-MEL-2 melanoma
[38] = test system: CAKI-1 renal
[39] = test system: M14 melanoma
[40] = test system: SR leukemia
[41] = test system: A498 renal
[42] = test system: UO-31 renal
[43] = test system: CCRF-CEM leukemia
[44] = test system: NCI-H522 lung
[45] = test system: T-47D breast
[46] = test system: SN12C renal
[47] = test system: U251 CNS
[48] = test system: SK-MEL-5 melanoma
[49] = test system: NCI-H460 lung
[50] = test system: IGROV1 ovarian
[51] = test system: OVCAR-3 ovarian
[52] = test system: UACC-257 melanoma
[53] = test system: HOP-62 NSCLC
[54] = test system: OVCAR-5 ovarian
[55] = test system: OVCAR-8 ovarian
[56] = test system: EKVX NSCLC
[57] = test system: SNB-75 CNS
[58] = test system: K-562 leukemia
[59] = test system: HCC-2998 colon

COc1cc(C=O)cc(/C=N/N=C/c2ccccc2O)c1O
TGI [1]: > 100 µM
TGI [2]: 54 µM
TGI [3]: > 100 µM
TGI [4]: 45.3 µM
TGI [5]: 67.4 µM
TGI [6]: > 100 µM
TGI [7]: > 100 µM
TGI [8]: 76.4 µM
TGI [9]: > 100 µM
TGI [10]: > 100 µM
TGI [11]: 50.6 µM
TGI [12]: 34.2 µM
TGI [13]: > 100 µM
TGI [14]: 58.6 µM
TGI [15]: 0.0201 µM
TGI [16]: > 100 µM
TGI [17]: 73.8 µM
TGI [18]: > 100 µM
TGI [19]: 8.16 µM
TGI [20]: 82.9 µM
TGI [21]: 85.9 µM
TGI [22]: > 100 µM
TGI [23]: > 100 µM
TGI [24]: 18.1 µM
TGI [25]: > 100 µM
TGI [26]: > 100 µM
TGI [27]: 2.05 µM
TGI [28]: 52.6 µM
TGI [29]: > 100 µM
TGI [30]: > 100 µM
TGI [31]: 10.3 µM
TGI [32]: 67.3 µM
TGI [33]: > 100 µM
TGI [34]: 59.7 µM
TGI [35]: 39.8 µM
TGI [36]: 54.5 µM
TGI [37]: 47 µM
TGI [38]: 49 µM
TGI [39]: 56.8 µM
TGI [40]: 51.2 µM
TGI [41]: > 100 µM
TGI [42]: 99.1 µM
TGI [43]: 70.3 µM
TGI [44]: > 100 µM
TGI [45]: 28.2 µM
TGI [46]: 64.4 µM
TGI [47]: > 100 µM
TGI [48]: > 100 µM
TGI [49]: > 100 µM
TGI [50]: > 100 µM
TGI [51]: 65.9 µM
TGI [52]: > 100 µM
TGI [53]: > 100 µM

O=C(NCCc1[nH]nc2c1C(=O)C=C(Nc1ccccc1)C2=O)OCc1ccccc1
TGI [1]: > 100 µM
TGI [2]: > 100 µM
TGI [3]: > 100 µM
TGI [4]: > 100 µM
TGI [54]: > 100 µM
TGI [5]: > 100 µM
TGI [6]: > 100 µM
TGI [7]: > 100 µM
TGI [8]: > 100 µM
TGI [9]: > 100 µM
TGI [10]: > 100 µM
TGI [11]: > 100 µM
TGI [12]: > 100 µM
TGI [13]: > 100 µM
TGI [14]: > 100 µM
TGI [15]: > 100 µM
TGI [16]: > 100 µM
TGI [55]: > 100 µM
TGI [18]: > 100 µM
TGI [19]: > 100 µM
TGI [20]: > 100 µM
TGI [21]: > 100 µM
TGI [22]: > 100 µM
TGI [23]: > 100 µM
TGI [25]: > 100 µM
TGI [26]: > 100 µM
TGI [27]: > 100 µM
TGI [28]: > 100 µM
TGI [29]: > 100 µM
TGI [30]: > 100 µM
TGI [31]: > 100 µM
TGI [32]: > 100 µM
TGI [33]: > 100 µM
TGI [34]: > 100 µM
TGI [35]: > 100 µM
TGI [36]: > 100 µM
TGI [37]: > 100 µM
TGI [38]: > 100 µM
TGI [39]: > 100 µM
TGI [40]: > 100 µM
TGI [41]: > 100 µM
TGI [56]: > 100 µM
TGI [42]: > 100 µM
TGI [43]: > 100 µM
TGI [44]: > 100 µM
TGI [45]: > 100 µM
TGI [46]: > 100 µM
TGI [47]: > 100 µM
TGI [57]: > 100 µM
TGI [48]: > 100 µM
TGI [49]: > 100 µM
TGI [50]: > 100 µM
TGI [51]: > 100 µM
TGI [52]: > 100 µM

CN(C)C=Nc1ccc2[nH]c3ccccc3c2c1
TGI [2]: > 100 µM
TGI [3]: 43.8 µM
TGI [4]: 60.4 µM
TGI [54]: 96.5 µM
TGI [5]: > 100 µM
TGI [6]: > 100 µM
TGI [7]: 33 µM
TGI [8]: 43.1 µM
TGI [9]: 46.5 µM
TGI [10]: > 100 µM
TGI [11]: 70 µM
TGI [12]: 50.5 µM
TGI [14]: 84 µM
TGI [15]: 41.7 µM
TGI [16]: > 100 µM
TGI [17]: 40 µM
TGI [55]: > 100 µM
TGI [18]: > 100 µM
TGI [19]: > 100 µM
TGI [20]: 30.2 µM
TGI [21]: > 100 µM
TGI [22]: > 100 µM
TGI [23]: 33.9 µM
TGI [24]: 54.7 µM
TGI [25]: 40.6 µM
TGI [26]: 79 µM
TGI [27]: 83.3 µM
TGI [28]: > 100 µM
TGI [29]: > 100 µM
TGI [30]: 86.2 µM
TGI [31]: > 100 µM
TGI [32]: > 100 µM
TGI [33]: > 100 µM
TGI [34]: > 100 µM
TGI [35]: 39 µM
TGI [36]: 34.2 µM
TGI [37]: 35.3 µM
TGI [38]: > 100 µM
TGI [39]: 29.1 µM
TGI [40]: 41 µM
TGI [41]: 60.1 µM
TGI [56]: > 100 µM
TGI [42]: 88.1 µM
TGI [58]: 43.4 µM
TGI [43]: > 100 µM
TGI [45]: 97.7 µM
TGI [46]: > 100 µM
TGI [47]: 68.6 µM
TGI [57]: > 100 µM
TGI [48]: 30.4 µM
TGI [50]: > 100 µM
TGI [51]: > 100 µM
TGI [52]: 30.3 µM
TGI [53]: 57.7 µM

CCCc1c(Cl)nc(Cl)nc1Cl
TGI [1]: 12.7 µM
TGI [2]: 4.3 µM
TGI [3]: 4.02 µM
TGI [4]: > 33.1 µM
TGI [54]: 17.5 µM
TGI [5]: 10.7 µM
TGI [6]: 16.3 µM
TGI [7]: 0.548 µM
TGI [8]: 7.99 µM
TGI [9]: 3.71 µM
TGI [10]: 7.53 µM
TGI [11]: 11.2 µM
TGI [12]: 5.84 µM
TGI [13]: 15.8 µM
TGI [14]: 0.0913 µM
TGI [15]: 3.01 µM
TGI [16]: 26.3 µM
TGI [17]: 1.45 µM
TGI [55]: > 19.9 µM
TGI [18]: 24.6 µM
TGI [19]: 12.3 µM
TGI [20]: 0.706 µM
TGI [21]: 28.6 µM
TGI [22]: 9.82 µM
TGI [59]: 15.6 µM
TGI [23]: 2.44 µM
TGI [24]: 4.95 µM
TGI [25]: > 100 µM
TGI [26]: 4.93 µM
TGI [27]: 10.7 µM
TGI [28]: 4.37 µM
TGI [29]: > 68 µM
TGI [30]: 18.5 µM
TGI [31]: 27.6 µM
TGI [32]: 22.8 µM
TGI [33]: 21.1 µM
TGI [34]: > 100 µM
TGI [35]: 11.9 µM
TGI [36]: 0.461 µM
TGI [37]: 4.35 µM
TGI [39]: > 37.9 µM
TGI [40]: 2.15 µM
TGI [41]: 34.7 µM
TGI [42]: > 55.4 µM
TGI [58]: 1.53 µM
TGI [43]: 0.0921 µM
TGI [45]: 11.7 µM
TGI [46]: 5.51 µM
TGI [47]: 7.95 µM
TGI [57]: 28.1 µM
TGI [48]: 2.54 µM
TGI [49]: 12.7 µM
TGI [50]: > 37.3 µM
TGI [51]: 5.46 µM
TGI [52]: 11.1 µM
TGI [53]: 7.79 µM

Cc1c(C(=O)OCc2ccccc2)[n+](=O)c2ccccc2n1[O-]
TGI [2]: 95.7 µM
TGI [3]: > 100 µM
TGI [4]: 30.5 µM
TGI [54]: > 100 µM
TGI [5]: > 100 µM
TGI [6]: > 100 µM
TGI [7]: > 100 µM
TGI [8]: 64.8 µM
TGI [9]: > 100 µM
TGI [10]: 93.8 µM
TGI [11]: > 100 µM
TGI [12]: > 100 µM
TGI [13]: > 100 µM
TGI [14]: 57.1 µM
TGI [15]: 77.4 µM
TGI [16]: 85 µM
TGI [17]: > 100 µM
TGI [55]: > 100 µM
TGI [18]: 70.7 µM
TGI [19]: > 100 µM
TGI [20]: 37.6 µM
TGI [21]: > 100 µM
TGI [22]: 47.8 µM
TGI [59]: > 100 µM
TGI [23]: 75.2 µM
TGI [25]: > 100 µM
TGI [26]: 69.1 µM
TGI [27]: 43 µM
TGI [28]: > 100 µM
TGI [29]: > 100 µM
TGI [30]: 84.6 µM
TGI [31]: 72.9 µM
TGI [32]: 65.6 µM
TGI [33]: > 100 µM
TGI [34]: > 100 µM
TGI [35]: 13.4 µM
TGI [36]: 44.8 µM
TGI [37]: > 100 µM
TGI [38]: 80.5 µM
TGI [39]: > 100 µM
TGI [40]: 47.3 µM
TGI [41]: 94.3 µM
TGI [56]: 91.5 µM
TGI [42]: 86.3 µM
TGI [58]: > 100 µM
TGI [43]: 0.199 µM
TGI [45]: 57.2 µM
TGI [46]: > 100 µM
TGI [47]: > 100 µM
TGI [57]: 56.5 µM
TGI [48]: 53.6 µM
TGI [49]: > 100 µM
TGI [50]: 34.1 µM
TGI [51]: > 100 µM
TGI [52]: 56.1 µM
TGI [53]: 61.2 µM
